Literature values in PMC6270976, “Pharmacokinetic Study in Mice of Galphimine-A, an Anxiolytic Compound from Galphimia glauca” (Molecules, 2014).
“Also recorded” adds a separate entry of the source. Read-outs that look alike come from different tables or passages of the source.

Columns and labels:
[1] = cited from earlier work
[2] = parameters: method as in PMID 14758039; settings: cited from earlier work
[3] = parameters: method as in PMID 18452416; settings: humans; cited from earlier work

Q: With `COC(=O)[C@@]12CC[C@@]3(C)[C@@H]4C=CC(=O)OC[C@]4([C@@H](C)O)[C@@H](OC(C)=O)[C@@H](O)[C@@H]3[C@@]1(C)CC[C@@]1(C)CC=C(C)C[C@]12O` [G–E, galphimine-E] as the compound, how does the Anxiolytic activity [1] read?
A: inactive

Q: Which Anxiolytic activity ([1]; among the galphimines) does the source give for `COC(=O)[C@@]12CC[C@@]3(C)[C@@H]4C=CC(=O)OC[C@]4([C@@H](C)O)C[C@@H](O)[C@@H]3[C@@]1(C)CC[C@@]1(C)CC=C(C)C[C@]12O` [G–B, galphimine-B] here?
A: most active; also recorded: highest anxiolytic activity

Q: What does the source list for `CC1(C)[C@@H](O)CC[C@]2(C)[C@H]3C(=O)C=C4[C@@H]5C[C@@](C)(C(=O)O)CC[C@]5(C)CC[C@@]4(C)[C@]3(C)CC[C@@H]12` [glycyrrhetinic acid]?
A: k10 (elimination rate constant) ([2]; mice, 100 mg/kg orally, one-compartment model): 0.0006 min⁻¹; AUC0→∞ ([2]; oral administration in mice): 2,454 µg·min·mL^−1; k10 [3]: 0.0012 min⁻¹
